Assay results taken from patent US7947279B2, “Peptide having hydrolase activity” (The Trustees of Columbia University in the City of New York, priority 2005, dated 2011).
Entries after “also recorded” stand apart in the source; their conditions may differ.

Legend:
[1] = system: CA1-LTP in hippocampal slices; assay: CA1-LTP in hippocampal slices (theta-burst); format: cell-based, mouse; settings: for baseline transmission in slices without tetanic stimulation: non-tetanized slices; for rescue of LTP at different concentrations, S18Y versus TAT-HA-Uch-L1 (words): 1 hr pre-treatment, then Aβ 200 nM 20 min, as low as 5 nM; for Aβ-induced impairment of CA1-LTP (words): fusion protein 20 nM 1 hr, then plus Aβ 200 nM 20 min
[2] = system: BST at the Schaffer collateral/CA1 connection of hippocampal slices; assay: Basal synaptic transmission (BST) in hippocampal slices; format: cell-based, mouse
[3] = system: PPF in hippocampal slices; assay: Paired pulse facilitation (PPF) in hippocampal slices; format: cell-based, mouse
[4] = system: SY5Y neuroblastoma cells transfected with a degron CL1-GFP expression vector; assay: Proteasome reporter assay (GFP^u); format: cell-based, human; settings: substance alone
Description: Proteasome reporter assays. In this cell line, human neuroblastoma SH-SY5Y cells were permanently transfected with reporter construct consisting of green fluorescent protein (GFP) conjugated at its C-terminus to a short degron sequence (CL-1) (Gilon et al., 1998). […] The SY5Y-GFP^u cells were grown in 1×DMEM (Invitrogen) supplemented with 15% fetal bovine serum (JRH), 1× penicillin/streptomycin (Gibco). After indicated treatments, GFP^u concentrations were assayed by densitometric analysis of immunoblots of total protein extracts (10 ug/lane) using monoclonal GFP antibodies (Santa Cruz Biotechnology) and visualized with HRP-conjugated secondary antibodies and ECL (Pierce). Loading equalization was normalized by probing blots with anti-ERK antibodies (Santa Cruz Biotechnology).

PKA [5] = assay: PKA kinase activity in hippocampal slices; format: cell-based, mouse
PKA [6] = assay: PKA kinase activity in hippocampal cultures; format: cell-based, rat
Description: PKA Kinase Activity Measurement. Primary hippocampal neurons from E18 rats were dissociated and cultured as described (Vitolo et al, Proc Natl Acad Sci USA 99:13217-13221 (2002)). […]
Hippocampal slices were lysed with RIPA lysis buffer and homogenized by Dounce homogenizer on ice. 5 DIV primary cultures were treated for 24 hrs and cells were lysed with RIPA lysis buffer.
Levels of intracellular PKA kinase activity were measured by PKA Kinase Activity Assay Kit (Stressxpress) according to manufacturer's instructions.
(§1) Preparation of Cell Cultures. Hippocampal cell cultures were prepared as previously described (Vitolo et al., 2002). In cell culture experiments fetuses at embryonic day 18 from timed pregnant Sprague-Dawley rats (Taconic Farms) were used. Fetuses were sacrificed and the hippocampi removed. Neurons were then dissociated, plated on 6 well-plates coated with poly-L-lysine and maintained in a defined serum-free medium containing minimum essential medium supplemented with N-2, glucose, albumin, pyruvic acid, antibiotics and antimycotics. […] 5 DIV cells were used for the experiments.

Uch-L1 = assay: Hydrolase (ubiquitin-AMC) assay on hippocampal slices; format: cell-based, mouse; settings: 200 nM Aβ alone
Description: Slice preparation. Mice were decapitated and their hippocampi removed. […] Slices were permitted to recover from cutting for at least 90 min. before recordings. For experiments with lactacystin, slices were perfused with the drug or vehicle for 2 to 4 hrs in a small volume (10 ml) chamber.
Briefly, hippocampal tissue was treated with tissue protein extraction reagent (T-PER; Pierce) containing freshly added EDTA-free protease inhibitors. Homogenate was centrifuged at 10,000 rpm for 5 min. Protein concentration was measured in the supernatant using the BCA protein assay reagent. In some experiments hydrolysis was initiated by adding 10 μl of 20 nM Uch-L1 or Uch-L3 (Boston Biochem). The hydrolase assay was performed using fluorogenic ubiquitin-7-amino-4-methylcoumarin (ubiquitin-AMC) (Boston Biochem) as a substrate. The substrate was diluted in assay buffer (50 mM Tris-HCL, 0.5 mM EDTA, 5 mM dithiothreitol and 0.1 mg/ml ovalbumin, pH 7.6). Each reaction mixture containing 400 nM substrate and 100 μg enzyme sample was incubated for 5 min at room temperature. The reaction was monitored using a fluorescence spectrophotometer (CytoFluor Series 4000, ABI Inc) at 25° C. The free AMC fluorophore was excited at 380 nm and measured at 460 nm. […] In some experiments, hydrolysis was also measured on the soluble and insoluble fractions (FIG. 28D). In a group of experiments hydrolysis was measured by mixing ubiquitin-AMC with 20 nM TAT fusion proteins (FIG. 27C). In other experiments the substrate was Nedd8-AMC (Boston Biochem).

monoubiquitin = assay: Monoubiquitin levels (quantitative Western blot); format: cell-based, mouse
Description: (§2) Western Blotting: Protein levels were assessed using standard procedures. Protein extraction was performed using buffer with and without detergent. For the extraction of protein using detergent, hippocampal tissues and cultured hippocampal neurons (5 DIV) were homogenized in RIPA buffer (50 mM Tris-HCl pH 7.4, 1% Triton X-100, 1% sodium deoxycholate, 0.1% SDS, 150 mM sodium chloride, 10 mM sodium fluoride, 30 mM sodium pyrophosphate, 50 mM sodium orthovanadate) containing 1× complete protease inhibitor (Roche) and 1 mM phenylmethylsulfonyl fluoride (PMSF). For extraction of proteins without detergent, hippocampal extracts were homogenized with disposable dounce homogenizers in buffer A, containing 10 mM HEPES pH 7.3, 300 mM sucrose, protease 1× complete protease inhibitor (Roche) and PMSF. After centrifugation at 10,000×g supernatant proteins were resolved on a 8% or 4-20% gradient Tris-Glycine gel, transferred onto PVDF or nitrocellulose membrane and blocked in 5% skim milk in PBS-Tween 0.1% (PBS-T). Membranes were probed with primary antibodies, and after washing with PBS-T incubated with an appropriate HRP-conjugated secondary antibody. The following antibodies were used: mouse monoclonal anti-ubiquitin (Chemicon), rabbit polyclonal anti-pCREB (Upstate Biotech.), rabbit polyclonal anti-PKA-RIIα (Santa Cruz Biotech. Inc), mouse monoclonal anti-Uch-L1 (Novocastra), monoclonal mouse anti-HA (Santa Cruz Biotech. Inc), and anti-PKA IIα. Detection was performed using HRP-conjugated secondary antibodies (Pierce, Rockford, Ill.). To control loading and transfer, protein immunoreactivities were normalized against total extracellular signal-regulated protein kinases (ERK1/2) levels with a rabbit analyzed using a rabbit polyclonal anti-ERK1/2 antibody (Cell Signaling Technology, Inc). NIH IMAGE was used to analyze the scanned blots and quantify the intensity of the protein signals.

PKA RIIα = PKA RIIα levels in hippocampal slices (Western blot); format: cell-based, mouse; settings: for PKA RIIα levels (words): Aβ 200 nM 20 min alone
Description: as §2

cAMP = assay: Intracellular cAMP enzyme immunoassay; format: cell-based, rat; settings: Aβ 3 μM 24 hrs alone
Description: Intracellular cAMP Enzyme Immunoassay. Hippocampal neurons from E18 rats were dissociated and plated on poly-L-lysine coated 6-well plates in minimum essential medium supplemented with N-2, glucose, albumin, pyruvic acid, antibiotics and antimycotics. […] After 24 hours, cell lysates were obtained and intracellular cAMP levels were measured using cAMP Biotrak Enzymeimmunoassay (EIA) System (Amersham) in accordance with manufacturer's instructions.

phospho-CREB = assay: Phospho-CREB immunofluorescence in hippocampal slices; format: cell-based, mouse; settings: for tetanus-induced increase in phospho-CREB (words): Aβ alone
phospho-CREB at Ser-133 = assay: Phospho-CREB (Ser-133) Western blot in hippocampal cultures; format: cell-based, rat; settings: for glutamate-induced CREB phosphorylation (words): 3 μM Aβ 24 hrs alone; for effect of Aβ on glutamate-induced CREB phosphorylation (words): fusion protein 100 nM, 3 μM Aβ 24 hrs, 50 μM glutamate 15 min
Description: as §2, §1

[7] = lactacystin 10 μM, 2 to 4 hour exposure
[8] = prolonged exposure lactacystin 10 μM

CCCCCCOC(=O)[C@]1(O)C[C@@H]2O[C@@]1(C)n1c3ccccc3c3c4c(c5c6ccccc6n2c5c31)C(=O)NC4 [KT5720, reference compound]
reversal of LTP reduction by Uch-L1 fusion protein ([1]; KT5720 1 μM, Uch-L1 fusion protein 20 nM, Aβ 200 nM): blocked

CC(=O)N[C@@H](CSC(=O)[C@]1([C@@H](O)C(C)C)NC(=O)[C@H](C)[C@@H]1O)C(=O)O [lactacystin, reference compound]
LTP ([1]; lactacystin 10 μM, 2-4 hrs): markedly reduced; also recorded: blocked | LTP [1, 7]: approximately 50 % that of vehicle treated slices | LTP ([1]; lactacystin 10 μM, 15 min): did not change; also recorded: does not affect; also recorded: did not affect CA1-LTP | baseline transmission in slices without tetanic stimulation [1]: did not affect baseline transmission | LTP at 60 min [1, 8]: 116.17±14.69% | LTP at 120 min [1, 8]: 119.25±12.82 % of baseline | BST ([2]; lactacystin 10 μM, 2-4 hrs): markedly reduced; also recorded: strongly reduced | BST (slope of the input-output curve at 35 V) [2, 7]: approximately 50 % that of vehicle treated slices | BST ([2]; lactacystin 10 μM, 15 min): did not change; also recorded: does not affect; also recorded: did not affect BST | BST at 35V stimulation [2, 8]: 0.93±0.06 mV/ms | PPF ([3]; lactacystin 10 μM, 2-4 hrs): markedly reduced | PPF at 50 ms interval [3, 8]: 150.96±10.18% | PPF at 300 ms interval [3, 8]: 119.11±5.43% | GFP^u levels [4]: much larger increase in GFP | PKA activity (PKA [5]; lactacystin 10 μM 1 hr pretreatment, TAT-HA-Uch-L1 plus Aβ): 74.9±3.21% | beneficial effect of TAT-HA-Uch-L1 on PKA activity (PKA [6]; lactacystin 10 μM for 1 hr): blocked the beneficial effect

Aβ: oligomeric Aβ42 prepared from lyophilized synthetic peptide (American Peptide) [reference compound]
ubiquitin-c-terminal hydrolase enzymatic activity (Uch-L1): 72.36±6.81 % of TAT-HA treated WT slices | LTP ([1]; Aβ 200 nM alone): markedly reduced; also recorded: LTP was reduced | LTP at 120 min after tetanus ([1]; oligomeric Aβ 200 nM, 20 min perfusion): 136.34±13.40 % of baseline slope | BST in WT slices (words) ([2]; fusion protein 20 nM 1 hr or Aβ 200 nM 20 min, alone): did not reveal any significant difference among treatments; also recorded: does not affect CA1-BST | decrease of monoubiquitin levels (monoubiquitin; oligomeric Aβ42 200 nM for 20 min): ~70% | monoubiquitin levels (monoubiquitin; substance alone): reduced | GFP^u levels [4]: increase in GFP levels | PKA activity in slices (PKA [5]; 200 nM Aβ for 20 min alone): reduced | PKA activity (PKA [5]; 200 nM Aβ for 20 minutes): 71.75±2.21 % of control | PKA activity in cultures (PKA [6]; 3 μM Aβ for 24 hrs alone): reduced | PKA RIIα levels (words) (PKA RIIα): increase in PKA RIIα levels | PKA RIIα levels (words) (PKA RIIα; listed as Aβ42): marked increase in RIIα | PKA RIIα levels (words) (PKA RIIα; listed as amyloid-beta): increased | RIIα levels (PKA RIIα; Aβ42 200 nM for 20 minutes): 163.68±10.51 % of TAT-HA control slices | cAMP levels (cAMP): reduced cAMP levels | tetanus-induced increase in phospho-CREB (words) (phospho-CREB): blocks the increase in phosphorylated CREB; also recorded: blocked the increase in phospho-CREB; also recorded: blockade of the increase in CA1-phospho-CREB | tetanus-induced increase in phospho-CREB (words) (phospho-CREB; listed as Aβ42): blocked the increase in CA1 immunofluorescence | phospho-CREB immunofluorescence without theta-burst (phospho-CREB; no tetanus): did not increase immunofluorescence; also recorded: did not modify immunofluorescence; also recorded: neither Aβ42 alone nor TAT-HA-Uch-L1 alone nor TAT-HA-Uch-L1 paired with Aβ42 induced changes | glutamate-induced CREB phosphorylation (words) (phospho-CREB at Ser-133): annulled the increase in phospho-CREB | glutamate-induced CREB phosphorylation (words) (phospho-CREB at Ser-133; listed as Aβ42): strong decrease in CREB phosphorylation

B1: TAT-HA-Uch-L1(S18Y): mutant TAT-HA-Uch-L1 construct, S18Y (ligase site), made by site-directed mutagenesis (protein, UniProt P09936 1-220, looked up, variant S18Y)
Ubiquitin carboxyl-terminal …: MQLKPMEINPEMLNKVLYRLGVAGQWRFVDVLGLEEESLGSVPAPACALLLLFPLTAQHENFRKKQIEELKGQEVSPKVYFMKQTIGNSCGTIGLIHAVANNQDKLGFEDGSVLKQFLSETEKMSPEDRAKCFEKNEAIQAAHDAVAQEGQCRVDDKVNFHFILFNNVDGHLYELDGRMPFPVNHGASSEDTLLKDAAKVCREFTEREQGEVRFSAVALC
modifications: fused to HIV TAT transduction peptide and HA tag
notes: mutant TAT-HA-Uch-L1 construct, S18Y (ligase site), made by site-directed mutagenesis
rescue of LTP at different concentrations, S18Y versus TAT-HA-Uch-L1 (words) [1]: no difference between the two forms | rescue of LTP at different concentrations, S18Y versus TAT-HA-Uch-L1 (words) ([1]; listed as TAT-HA-Uch-L1 (S18Y)): No difference was detected | Aβ-induced impairment of CA1-LTP (words) [1]: protected; also recorded: completely reversed | Aβ-induced impairment of CA1-LTP (words) ([1]; listed as TAT-HA-Uch-L1 (S18Y)): significantly enhanced the amplitude of LTP | LTP in slices not treated with Aβ (words) ([1]; fusion protein 20 nM, 1 hr, WT slices, 3 theta-burst trains): did not affect the amounts of potentiation | baseline transmission in slices without tetanic stimulation [1]: Neither TAT-HA-Uch-L1(C90S) nor TAT-HA-Uch-L1(S18Y) affected baseline; also recorded: nor affected basal transmission | effect of Aβ on glutamate-induced CREB phosphorylation (words) (phospho-CREB at Ser-133): totally blocked the effect of Aβ on CREB phosphorylation; also recorded: completely opposed | effect of Aβ on glutamate-induced CREB phosphorylation (words) (phospho-CREB at Ser-133; listed as TAT-HA-Uch-L1 (S18Y)): completely opposed
